Experimental data from PubChem BioAssay AID248 (DTP/NCI, 2004).
Where “and” joins values, the source holds several entries; their conditions need not be identical. Equal values may be shown once. Inconclusive results and toxic doses are left out. Rule as the data show it: active = T/C of 150% or more; inactive = T/C below 125%.

Test system: L1210 leukemia ip in BDF1 mice, survival T/C
Test: NCI In Vivo Anticancer Drug Screen. Data for tumor model L1210 Leukemia (intraperitoneal) in B6D2F1 (BDF1) mice
Details: higher = longer survival
Procedure, shortened: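 Mice bearing the transplanted tumor received compound or vehicle. Survival of the treated group was divided by that of the vehicle-treated control group to give the ratio.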

[1] = endpoint: mean survival time, dose: 100.0 mg/kg/injection, schedule: Q01DX009 (ip), vehicle: saline with Tween-80
[2] = endpoint: mean survival time, dose: 100.0 mg/kg/injection, schedule: Q01DX009 (ip), vehicle: saline
[3] = endpoint: mean survival time, dose: 100.0 mg/kg/injection, schedule: Q04DX003 (ip), vehicle: saline with Tween-80
[4] = endpoint: mean survival time, dose: 200.0 mg/kg/injection, schedule: Q01DX009 (ip), vehicle: saline with Tween-80
[5] = endpoint: mean survival time, dose: 200.0 mg/kg/injection, schedule: Q01DX009 (ip), vehicle: saline
[6] = endpoint: mean survival time, dose: 200.0 mg/kg/injection, schedule: Q04DX003 (ip), vehicle: saline with Tween-80
[7] = endpoint: mean survival time, dose: 400.0 mg/kg/injection, schedule: Q01DX009 (ip), vehicle: saline
[8] = endpoint: mean survival time, dose: 400.0 mg/kg/injection, schedule: Q04DX003 (ip), vehicle: saline with Tween-80

Measured: T/C

C[C@]12C=CC(=O)C=C1CC[C@@H]1[C@@H]2C(=O)C[C@@]2(C)[C@H]1CC[C@]2(O)C(=O)CO
inactive: endpoint: mean survival time, dose: 0.25 mg/kg/injection, schedule: Q01DX009 (ip), vehicle: water 99 % of control | endpoint: mean survival time, dose: 0.5 mg/kg/injection, schedule: Q01DX009 (ip), vehicle: water 103 % of control | endpoint: mean survival time, dose: 1.0 mg/kg/injection, schedule: Q01DX009 (ip), vehicle: water 96 % of control and 97 % of control | endpoint: mean survival time, dose: 2.0 mg/kg/injection, schedule: Q01DX009 (ip), vehicle: water 99 % of control and 101 % of control | endpoint: mean survival time, dose: 2.5 mg/kg/injection, schedule: Q01DX009 (ip), vehicle: water 101 % of control | endpoint: mean survival time, dose: 5.0 mg/kg/injection, schedule: Q01DX009 (ip), vehicle: water 104 % of control | endpoint: mean survival time, dose: 6.25 mg/kg/injection, schedule: Q01DX014 (sc), vehicle: steriod suspending solution 103 % of control and 104 % of control | endpoint: mean survival time, dose: 12.5 mg/kg/injection, schedule: Q01DX014 (sc), vehicle: steriod suspending solution 100 % of control and 109 % of control | endpoint: mean survival time, dose: 25.0 mg/kg/injection, schedule: Q01DX014 (sc), vehicle: steriod suspending solution 103 % of control and 105 % of control | endpoint: mean survival time, dose: 25.0 mg/kg/injection, schedule: Q01DX Z (sc), vehicle: steriod suspending solution 97 % of control and 102 % of control and 108 % of control | endpoint: mean survival time, dose: 50.0 mg/kg/injection, schedule: Q01DX009 (ip), vehicle: saline with Tween-80 102 % of control | endpoint: mean survival time, dose: 50.0 mg/kg/injection, schedule: Q01DX Z (sc), vehicle: steriod suspending solution 100 % of control (2×) and 112 % of control | endpoint: mean survival time, dose: 100.0 mg/kg/injection, schedule: Q01DX009 (ip), vehicle: Klucel (hydroxypropylcellulose) (HPC) 107 % of control | [1] 97 % of control | [2] 100 % of control | endpoint: mean survival time, dose: 100.0 mg/kg/injection, schedule: Q01DX009 (ip), vehicle: steriod suspending solution 104 % of control | endpoint: mean survival time, dose: 100.0 mg/kg/injection, schedule: Q01DX009 (sc), vehicle: Klucel (hydroxypropylcellulose) (HPC) 91 % of control | endpoint: mean survival time, dose: 100.0 mg/kg/injection, schedule: Q01DX009 (sc), vehicle: saline 97 % of control | endpoint: mean survival time, dose: 100.0 mg/kg/injection, schedule: Q01DX009 (sc), vehicle: steriod suspending solution 100 % of control | endpoint: mean survival time, dose: 100.0 mg/kg/injection, schedule: Q01DX Z (sc), vehicle: steriod suspending solution 98 % of control and 101 % of control | [3] 106 % of control | endpoint: mean survival time, dose: 120.0 mg/kg/injection, schedule: Q01DX001 (sc), vehicle: steriod suspending solution 106 % of control | endpoint: mean survival time, dose: 180.0 mg/kg/injection, schedule: Q01DX001 (sc), vehicle: steriod suspending solution 107 % of control | endpoint: mean survival time, dose: 200.0 mg/kg/injection, schedule: Q01DX009 (ip), vehicle: Klucel (hydroxypropylcellulose) (HPC) 100 % of control | [4] 102 % of control | [5] 104 % of control | endpoint: mean survival time, dose: 200.0 mg/kg/injection, schedule: Q01DX009 (ip), vehicle: steriod suspending solution 104 % of control | endpoint: mean survival time, dose: 200.0 mg/kg/injection, schedule: Q01DX009 (sc), vehicle: Klucel (hydroxypropylcellulose) (HPC) 110 % of control | endpoint: mean survival time, dose: 200.0 mg/kg/injection, schedule: Q01DX009 (sc), vehicle: saline 105 % of control | endpoint: mean survival time, dose: 200.0 mg/kg/injection, schedule: Q01DX009 (sc), vehicle: steriod suspending solution 102 % of control | endpoint: mean survival time, dose: 200.0 mg/kg/injection, schedule: Q01DX Z (sc), vehicle: steriod suspending solution 94 % of control and 96 % of control | [6] 98 % of control | endpoint: mean survival time, dose: 240.0 mg/kg/injection, schedule: Q01DX001 (sc), vehicle: steriod suspending solution 104 % of control | endpoint: mean survival time, dose: 400.0 mg/kg/injection, schedule: Q01DX009 (ip), vehicle: Klucel (hydroxypropylcellulose) (HPC) 100 % of control | [7] 101 % of control | endpoint: mean survival time, dose: 400.0 mg/kg/injection, schedule: Q01DX009 (ip), vehicle: steriod suspending solution 89 % of control | endpoint: mean survival time, dose: 400.0 mg/kg/injection, schedule: Q01DX009 (sc), vehicle: Klucel (hydroxypropylcellulose) (HPC) 97 % of control | endpoint: mean survival time, dose: 400.0 mg/kg/injection, schedule: Q01DX009 (sc), vehicle: saline 109 % of control | endpoint: mean survival time, dose: 400.0 mg/kg/injection, schedule: Q01DX009 (sc), vehicle: steriod suspending solution 96 % of control | endpoint: mean survival time, dose: 400.0 mg/kg/injection, schedule: Q01DX Z (sc), vehicle: steriod suspending solution 100 % of control | [8] 104 % of control | endpoint: mean survival time, dose: 500.0 mg/kg/injection, schedule: Q01DX001 (ip), vehicle: water 98 % of control and 103 % of control | endpoint: mean survival time, dose: 800.0 mg/kg/injection, schedule: Q01DX009 (ip), vehicle: Klucel (hydroxypropylcellulose) (HPC) 105 % of control | endpoint: mean survival time, dose: 800.0 mg/kg/injection, schedule: Q01DX009 (ip), vehicle: saline 110 % of control | endpoint: mean survival time, dose: 800.0 mg/kg/injection, schedule: Q01DX009 (ip), vehicle: steriod suspending solution 95 % of control | endpoint: mean survival time, dose: 800.0 mg/kg/injection, schedule: Q01DX009 (sc), vehicle: Klucel (hydroxypropylcellulose) (HPC) 103 % of control | endpoint: mean survival time, dose: 800.0 mg/kg/injection, schedule: Q01DX009 (sc), vehicle: saline 104 % of control | endpoint: mean survival time, dose: 800.0 mg/kg/injection, schedule: Q01DX009 (sc), vehicle: steriod suspending solution 102 % of control | endpoint: mean survival time, dose: 1000.0 mg/kg/injection, schedule: Q01DX001 (ip), vehicle: water 97 % of control and 102 % of control | endpoint: mean survival time, dose: 2000.0 mg/kg/injection, schedule: Q01DX001 (ip), vehicle: water 96 % of control and 109 % of control | endpoint: median survival time, dose: 25.0 mg/kg/injection, schedule: Q01DX009 (ip), vehicle: water 100 % of control and 90 % of control | endpoint: median survival time, dose: 50.0 mg/kg/injection, schedule: Q01DX009 (ip), vehicle: water 95 % of control and 100 % of control | endpoint: median survival time, dose: 100.0 mg/kg/injection, schedule: Q01DX009 (ip), vehicle: water 95 % of control and 100 % of control | endpoint: median survival time, dose: 108.0 mg/kg/injection, schedule: Q01DX009 (ip), vehicle: water 100 % of control and 90 % of control | endpoint: median survival time, dose: 180.0 mg/kg/injection, schedule: Q01DX009 (ip), vehicle: water 95 % of control and 90 % of control | endpoint: median survival time, dose: 200.0 mg/kg/injection, schedule: Q01DX009 (ip), vehicle: water 95 % of control and 100 % of control | endpoint: median survival time, dose: 300.0 mg/kg/injection, schedule: Q01DX009 (ip), vehicle: water 100 % of control | endpoint: median survival time, dose: 375.0 mg/kg/injection, schedule: Q01DX001 (ip), vehicle: water 100 % of control | endpoint: median survival time, dose: 400.0 mg/kg/injection, schedule: Q01DX009 (ip), vehicle: water 95 % of control and 110 % of control | endpoint: median survival time, dose: 400.0 mg/kg/injection, schedule: Q04DX003 (ip), vehicle: saline 111 % of control | endpoint: median survival time, dose: 500.0 mg/kg/injection, schedule: Q01DX009 (ip), vehicle: water 90 % of control | endpoint: median survival time, dose: 600.0 mg/kg/injection, schedule: Q04DX003 (ip), vehicle: saline 104 % of control | endpoint: median survival time, dose: 750.0 mg/kg/injection, schedule: Q01DX001 (ip), vehicle: water 100 % of control | endpoint: median survival time, dose: 800.0 mg/kg/injection, schedule: Q01DX009 (ip), vehicle: water 100 % of control | endpoint: median survival time, dose: 833.0 mg/kg/injection, schedule: Q01DX009 (ip), vehicle: water 90 % of control | endpoint: median survival time, dose: 1388.0 mg/kg/injection, schedule: Q01DX009 (ip), vehicle: water 90 % of control | endpoint: median survival time, dose: 1500.0 mg/kg/injection, schedule: Q01DX001 (ip), vehicle: water 100 % of control | endpoint: median survival time, dose: 3000.0 mg/kg/injection, schedule: Q01DX001 (ip), vehicle: water 100 % of control and 102 % of control

O=c1cc(O)ccn1CC(O)c1ccc(Cl)s1 (stereo unspecified)
inactive: [1] 89 % of control | [3] 100 % of control | [4] 88 % of control | [6] 98 % of control | endpoint: mean survival time, dose: 400.0 mg/kg/injection, schedule: Q01DX009 (ip), vehicle: saline with Tween-80 94 % of control | [8] 99 % of control

CC([NH-])c1ccccc1.[Cl][Pt]([Cl])[Cl] (stereo unspecified)
inactive: [2] 97 % of control | [5] 92 % of control | [7] 87 % of control

CN1C2C=C(c3ccccc3)C(Br)C1CC2 (stereo unspecified)
inactive: endpoint: mean survival time, dose: 20.0 mg/kg/injection, schedule: Q04DX003 (ip), vehicle: saline with Tween-80 95 % of control | endpoint: mean survival time, dose: 40.0 mg/kg/injection, schedule: Q04DX003 (ip), vehicle: saline with Tween-80 97 % of control | endpoint: mean survival time, dose: 75.0 mg/kg/injection, schedule: Q01DX001 (ip), vehicle: saline 102 % of control | endpoint: mean survival time, dose: 150.0 mg/kg/injection, schedule: Q01DX001 (ip), vehicle: saline 98 % of control
